In series [1] the test system is cattle. The note with it: past attempts; vaginal administration by capsule; doses typically 10 times higher than intra-muscular; cited from earlier work.
Series [2] is described as follows: Plasma oestradiol concentration and pharmacokinetics following vaginal or intramuscular administration. Format: in vivo. The note with it: cattle, oestradiol benzoate. The procedure:
Error bars are standard error means (n=3).
FIG. 2 is a plasma oestradiol concentrations following vaginal administration of 10 mg oestradiol benzoate (open square), 10 mg oestradiol benzoate with 1:1 molar ratio β-cyclodextrin (open diamond), 10 mg oestradiol benzoate with 1:1 molar ratio hydroxypropyl β-cyclodextrin (open circle) or 10 mg oestradiol benzoate with 1:1 molar ratio γ-cyclodextrin (open triangle). Error bars are standard error means (n=4).
Error bars are standard error means (n=4).

The subject of series [3] is cattle. The series is described as follows: Follicular dynamics and oestrus following vaginal oestradiol 17β or intramuscular oestradiol benzoate. Format: in vivo. The note with it: for Follicle wave turnover (i.e. DF3) / No follicle wave turnover (i.e. no DF3): number of animals.
[4] abbreviates: 2 mg oestradiol benzoate, intramuscular administration.
[5] abbreviates: 2 mg oestradiol benzoate, intramuscular administration, group n = 7.
[6] abbreviates: 2.5 mg oestradiol 17β, vaginal administration.
Setting [7] is: 5.0 mg oestradiol 17β, vaginal administration.
[8] abbreviates: 2.5 mg oestradiol 17β, vaginal administration, group n = 8.
Where [9] appears, read: 5.0 mg oestradiol 17β, vaginal administration, group n = 8.

The source of these data is US20020028788A1, “Vaginal active agent delivery procedures and formulations thereof” (priority 1998, published 2002).

The structures appear in SMILES notation. Marks after values point to notes of the source that are not given here.

Take `C[C@]12CC[C@@H]3c4ccc(OC(=O)c5ccccc5)cc4CC[C@H]3[C@@H]1CC[C@@H]2O` [oestradiol benzoate]: the “oestrus expression and fertility” value in series [1] was “poor oestrus expression and poor fertility”. In addition, the “absorption following vaginal administration” value in series [2] was “poor and variable absorption”. Further, in series [3] (setting [4]), the “Age of ovulatory DF3” value is given as 6.0 ± 0.5^ d, the “Day DF2 emerged” value is recorded as 9.6 ± 0.6^a, the “Day DF3 emerged” value is recorded as 17.0 ± 0.4 ^ and the “Diameter DF2 on Day 13” value is recorded as 9.6 ± 1.0^a mm. In series [3] (setting [4]), the “Diameter of ovulatory DF3” value is recorded as 14.2 ± 0.4 ^ mm and the “Growth of DF2 from Day 13-17” value is −0.6 ± 0.7^b mm. The Day of oestrus in series [3] (2 mg oestradiol benzoate, intramuscular administration, n = 7) is given as 22.6 ± 0.2 (n = 7). In series [3] (setting [5]), the “Follicle wave turnover (i.e. DF3)” value turned out to be 6 and the “No follicle wave turnover (i.e. no DF3)” value was 1.
`C[C@]12CC[C@@H]3c4ccc(O)cc4CC[C@H]3[C@@H]1CC[C@@H]2O` [oestradiol 17β]: in series [3] (setting [6]), the “Age of ovulatory DF2” value is 12.0 ± 0.6 ^ d, the “Age of ovulatory DF3” value was determined as 6 days, the “Day DF2 emerged” value is listed as 9.9 ± 0.4^a and the “Diameter DF2 on Day 13” value was 9.9 ± 0.5^a mm. In addition, in series [3] (setting [6]), the “Diameter of ovulatory DF2” value was 15.6 ± 0.7 ^ mm, the “Diameter of ovulatory DF3” value is listed as 12 mm and the “Growth of DF2 from Day 13-17” value is recorded as 2.4 ± 0.6^a mm. In series [3] (2.5 mg oestradiol 17β, vaginal administration, n = 7), the Day of oestrus is listed as 22.0 ± 0.0 (n = 7). Also, in series [3] (setting [7]), the “Age of ovulatory DF2” value is 11.5 ± 0.5 ^ d, the “Age of ovulatory DF3” value was 7.0 ± 0.5^ d, the “Day DF2 emerged” value was 10.0 ± 0.6^a and the “Day DF3 emerged” value is 15.7 ± 0.6 ^. For the same molecule, in series [3] (setting [7]), the “Diameter DF2 on Day 13” value is 9.3 ± 0.8^a mm, the “Diameter of ovulatory DF2” value is 17.0 ± 1.0 ^ mm, the “Diameter of ovulatory DF3” value is listed as 13.7 ± 0.7 ^ mm and the “Growth of DF2 from Day 13-17” value is reported as 0.9 ± 0.8^ab mm. Besides, the Day of oestrus in series [3] (5.0 mg oestradiol 17β, vaginal administration, n = 8) is 22.0 ± 0.0 (n = 8). Moreover, in series [3] (setting [8]), the “Follicle wave turnover (i.e. DF3)” value came out at 3 and the “No follicle wave turnover (i.e. no DF3)” value was 5. Further, in series [3] (setting [9]), the “Follicle wave turnover (i.e. DF3)” value is on record as 6 and the “No follicle wave turnover (i.e. no DF3)” value came to 2. The “influence on follicular dynamics” value in series [3] (vaginal administration, 5 mg oestradiol 17β and γ-cyclodextrin in molar ratio 0.5:1, compared with i.m. 2 mg oestradiol benzoate) is reported as “influences follicular dynamics in a similar manner”.
